From patent publication US20120088808A1, “CRYSTAL FORMS OF SAXAGLIPTIN” (SANDOZ AG, priority 2009, published 2012) come the findings set out here.

Structures can show the parent of a compound that is named as a salt.

What all share (format): physicochemical
Data set [1] is described as follows: Water content by the Karl Fischer method. How it is done: The water content is determined according to the Karl Fischer method.
The nature of data set [2]: Stability of the crystal form against relative humidity (polymorphic transformation). The note with it: for relative humidity above which the form transforms to known Dihydrate H2-1: transformation not reversible, hydrochloride. The protocol:
Infrared spectra (IR) were collected on a MKII Golden Gate™ Single Reflection Diamond ATR (attenuated total reflection) cell with a Bruker Tensor 27 FTIR spectrometer with 4 cm^−1 resolution. To collect a spectrum a spatula tip of a sample was applied to the surface of the diamond in powder form. Then the sample was pressed onto the diamond with a sapphire anvil and the spectrum was recorded. A spectrum of the clean diamond was used as background spectrum. A typical precision of the wavenumber values is in the range of about ±2 cm^−1. Thus, an infrared peak that appears at 1716 cm^−1 can appear between 1714 and 1718 cm^−1 on most infrared spectrometers under standard conditions. A sample was stored at 45-49% relative humidity for 12 hours.

Data set [3] can be described thus: Thermogravimetric analysis (mass / water loss). How it is done:
Thermogravimetric analysis was performed with the thermogravimetric system TGA-7 using the Pyris Software for Windows NT (Perkin-Elmer, Norwalk, Conn., USA), 50 μl platinum pans, nitrogen purge gas (sample purge: 20 ml min^−1, balance purge: 40 ml min^−1).

The nature of data set [4]: Moisture sorption isotherm / water content at defined relative humidity, 25° C. The protocol: The moisture sorption isotherm was recorded with a SPS-11 moisture sorption analyzer (MD Mess-technik, Ulm, D). The measurement cycle was started at 0% relative humidity (RH), increased in 10% steps up to 90% RH and in a 5% step up to 95% RH. The equilibrium condition for each step was set to a constant mass ±0.003% over 49 min. The temperature was 25±0.1° C.

[5] abbreviates: at 40% relative humidity at 25° C.

As to `N#C[C@@H]1C[C@@H]2CC2N1C(=O)[C@@H](N)C12CC3CC(CC(O)(C3)C1)C2` (stereo partly drawn) [form HT-IV S, Saxagliptin hydrochloride], the “Water (KF)” value in data set [1] (after drying in vacuum oven at 50° C. about 10 hours, then about 80° C. for 5 hours) worked out at 0.7%; in data set [1] (sample stored at 45-49% relative humidity for 12 hours), 1.2%. Besides, the “change in the crystal form (FTIR)” value in data set [2] (after storage at 45-49% relative humidity for 12 hours) is on record as “No change in the crystal form”.

As for `N#C[C@@H]1C[C@@H]2CC2N1C(=O)[C@@H](N)C12CC3CC(CC(O)(C3)C1)C2` (stereo partly drawn) [form HT-S, Saxagliptin hydrochloride], the “water loss based on thermogravimetric analysis” value in data set [3] (FIG. 6) is “not more than 0.5 % w/w”.

Regarding `N#C[C@@H]1C[C@@H]2CC2N1C(=O)[C@@H](N)C12CC3CC(CC(O)(C3)C1)C2` (stereo partly drawn) [form I-S, Saxagliptin hydrochloride], the “water content (Karl Fischer apparatus)” value in data set [1] (crystalline form as obtained in example 1) is recorded as 1.2 % w/w. Besides, the water content entry in data set [4] (at about 50% relative humidity at 25° C., reversible) is “about 1.5%”. For the same molecule, the “fate of the water when lowering the relative humidity” value in data set [4] (relative humidity at 25° C. lowered to about 0.5%, reversible on exposure to about 50% humidity) is reported as “lost completely”. In addition, the “relative humidity at which the form is stable” value in data set [2] is given as “below 50 % relative humidity”. The “relative humidity above which the form transforms to known Dihydrate H2-1” value in data set [2] (listed as Form I-S) is given as “Above 50 % relative humidity”.

In the case of `N#C[C@@H]1C[C@@H]2CC2N1C(=O)[C@@H](N)C12CC3CC(CC(O)(C3)C1)C2` (stereo partly drawn) [form IV-S, Saxagliptin hydrochloride], the “water content (moisture sorption analysis)” value in data set [4] (at 0% relative humidity, process reversible) turned out to be 12.8%; in data set [4] (setting [5]), 13.1%. Also, in data set [4] (setting [5]), the “water corresponding to the water content” value is 2.94 mol of water. For the same molecule, the “water corresponding to the TGA mass loss” value in data set [3] (up to 100° C.) was 2.86 mol of water. In addition, the “mass loss by thermogravimetric analysis” value in data set [3] (up to 100° C., FIG. 11) is “about 12.8%”. For the same molecule, the “relative humidity above which the form transforms to known Dihydrate H2-1” value in data set [2] was “above 40 % relative humidity”.
